Measurements: the kinase profiling compilation of Christmann-Franck et al. (2016)
Where “and” joins values, the source holds several entries; their conditions need not be identical. Identical values can stand only once.

What was measured:
Assay in all cases: radiometric filter-binding kinase assay, Kinase HotSpot
Conditions in all cases: compound 0.5 µM; ATP 10 µM
AURKA (human) = AURKA (human) (UniProt O14965)
CAMK2G (human) = CAMK2G (human) (UniProt Q13555)
CAMKK1 (human) = CAMKK1 (human) (UniProt Q8N5S9)
CAMKK2 (human) = CAMKK2 (human) (UniProt Q96RR4)
CDK1 CCNB1 (human) = CDK1 CCNB1 (human) (UniProt P06493+P14635)
CDK5 CDK5R1 p35 (human) = CDK5 CDK5R1 p35 (human) (UniProt Q00535+Q15078)
CDK9 CCNK (human) = CDK9 CCNK (human) (UniProt O75909+P50750)
CHEK2 (human) = CHEK2 (human) (UniProt O96017)
CSNK1G2 (human) = CSNK1G2 (human) (UniProt P78368)
DAPK3 (human) = DAPK3 (human) (UniProt O43293)
DYRK1B (human) = DYRK1B (human) (UniProt Q9Y463)
EPHA1 (human) = EPHA1 (human) (UniProt P21709)
EPHA3 (human) = EPHA3 (human) (UniProt P29320)
FGFR2 (human) = FGFR2 (human) (UniProt P21802)
FGR (human) = FGR (human) (UniProt P09769)
FRK (human) = FRK (human) (UniProt P42685)
FYN (human) = FYN (human) (UniProt P06241)
GRK6 (human) = GRK6 (human) (UniProt P43250)
GSK3B (human) = GSK3B (human) (UniProt P49841)
LTK (human) = LTK (human) (UniProt P29376)
MAP3K2 (human) = MAP3K2 (human) (UniProt Q9Y2U5)
MAPK14 (human) = MAPK14 (human) (UniProt Q16539)
MAPK3 (human) = MAPK3 (human) (UniProt P27361)
MAPKAPK3 (human) = MAPKAPK3 (human) (UniProt Q16644)
MARK1 (human) = MARK1 (human) (UniProt Q9P0L2)
MELK (human) = MELK (human) (UniProt Q14680)
MYLK2 (human) = MYLK2 (human) (UniProt Q9H1R3)
NTRK1 (human) = NTRK1 (human) (UniProt P04629)
PAK1 (human) = PAK1 (human) (UniProt Q13153)
PAK7 (human) = PAK7 (human) (UniProt Q9P286)
PKN1 (human) = PKN1 (human) (UniProt Q16512)
PLK3 (human) = PLK3 (human) (UniProt Q9H4B4)
PNCK (human) = PNCK (human) (UniProt Q6P2M8)
PRKCE (human) = PRKCE (human) (UniProt Q02156)
PRKCH (human) = PRKCH (human) (UniProt P24723)
PRKG1 (human) = PRKG1 (human) (UniProt Q13976)
ROS1 (human) = ROS1 (human) (UniProt P08922)
RPS6KB1 (human) = RPS6KB1 (human) (UniProt P23443)
SYK (human) = SYK (human) (UniProt P43405)
ULK1 (human) = ULK1 (human) (UniProt O75385)

MAPKAPK3 (human), sequence (Q16644 whole entry, looked up): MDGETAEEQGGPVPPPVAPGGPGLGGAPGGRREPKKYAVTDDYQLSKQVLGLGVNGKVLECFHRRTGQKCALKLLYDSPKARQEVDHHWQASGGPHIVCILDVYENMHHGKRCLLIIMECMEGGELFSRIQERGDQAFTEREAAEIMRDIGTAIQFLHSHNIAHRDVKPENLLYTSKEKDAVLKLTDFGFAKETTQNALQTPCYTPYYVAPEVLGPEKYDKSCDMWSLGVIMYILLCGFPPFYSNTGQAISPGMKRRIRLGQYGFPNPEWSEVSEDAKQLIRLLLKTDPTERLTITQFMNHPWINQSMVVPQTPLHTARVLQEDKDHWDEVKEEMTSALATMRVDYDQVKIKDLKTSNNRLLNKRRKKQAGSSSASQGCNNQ
MAP3K2 (human), sequence (Q9Y2U5 whole entry, looked up): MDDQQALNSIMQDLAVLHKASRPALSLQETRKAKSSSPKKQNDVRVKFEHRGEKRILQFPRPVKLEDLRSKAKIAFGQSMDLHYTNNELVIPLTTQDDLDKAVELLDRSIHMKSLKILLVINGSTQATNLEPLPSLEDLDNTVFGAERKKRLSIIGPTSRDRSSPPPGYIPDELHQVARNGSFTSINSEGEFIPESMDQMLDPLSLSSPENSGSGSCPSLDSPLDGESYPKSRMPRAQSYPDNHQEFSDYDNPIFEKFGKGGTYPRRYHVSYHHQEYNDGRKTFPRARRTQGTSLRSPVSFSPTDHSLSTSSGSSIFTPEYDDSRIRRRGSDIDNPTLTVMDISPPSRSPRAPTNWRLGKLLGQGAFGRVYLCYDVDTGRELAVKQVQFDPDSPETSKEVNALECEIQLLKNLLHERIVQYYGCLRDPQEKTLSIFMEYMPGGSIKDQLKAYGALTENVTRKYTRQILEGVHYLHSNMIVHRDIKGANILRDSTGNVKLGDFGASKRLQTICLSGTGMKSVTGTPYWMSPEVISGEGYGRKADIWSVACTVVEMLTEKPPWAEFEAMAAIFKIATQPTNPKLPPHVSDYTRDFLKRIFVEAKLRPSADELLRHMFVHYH
RPS6KB1 (human), sequence (P23443 whole entry, looked up): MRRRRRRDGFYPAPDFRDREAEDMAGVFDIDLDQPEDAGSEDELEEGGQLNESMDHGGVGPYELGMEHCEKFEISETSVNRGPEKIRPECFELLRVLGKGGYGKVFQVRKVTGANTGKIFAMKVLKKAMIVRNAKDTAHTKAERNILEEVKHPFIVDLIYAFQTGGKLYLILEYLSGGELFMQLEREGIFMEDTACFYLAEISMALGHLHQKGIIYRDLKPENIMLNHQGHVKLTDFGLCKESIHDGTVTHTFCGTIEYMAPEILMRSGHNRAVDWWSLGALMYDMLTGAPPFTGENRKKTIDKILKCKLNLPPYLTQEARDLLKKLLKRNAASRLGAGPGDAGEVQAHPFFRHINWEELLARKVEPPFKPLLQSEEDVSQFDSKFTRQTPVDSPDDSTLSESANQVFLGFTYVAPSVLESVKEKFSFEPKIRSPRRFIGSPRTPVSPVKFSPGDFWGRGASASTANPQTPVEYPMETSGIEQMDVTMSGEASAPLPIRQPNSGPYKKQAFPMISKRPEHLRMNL
FGR (human), sequence (P09769 whole entry, looked up): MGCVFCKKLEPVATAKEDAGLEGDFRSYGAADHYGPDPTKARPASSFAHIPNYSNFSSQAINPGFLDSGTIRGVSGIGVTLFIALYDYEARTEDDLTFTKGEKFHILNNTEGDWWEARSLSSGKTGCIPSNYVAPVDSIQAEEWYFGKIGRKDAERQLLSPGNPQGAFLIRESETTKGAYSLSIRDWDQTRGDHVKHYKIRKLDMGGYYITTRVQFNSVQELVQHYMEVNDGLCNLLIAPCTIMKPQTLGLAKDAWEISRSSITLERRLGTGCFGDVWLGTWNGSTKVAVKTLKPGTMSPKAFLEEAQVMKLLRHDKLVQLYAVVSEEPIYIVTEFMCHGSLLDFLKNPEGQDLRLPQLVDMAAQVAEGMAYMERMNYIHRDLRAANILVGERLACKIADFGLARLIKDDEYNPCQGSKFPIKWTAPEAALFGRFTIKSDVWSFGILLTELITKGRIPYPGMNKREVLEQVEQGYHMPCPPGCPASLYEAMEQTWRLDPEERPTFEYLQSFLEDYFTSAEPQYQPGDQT
GRK6 (human), sequence (P43250 whole entry, looked up): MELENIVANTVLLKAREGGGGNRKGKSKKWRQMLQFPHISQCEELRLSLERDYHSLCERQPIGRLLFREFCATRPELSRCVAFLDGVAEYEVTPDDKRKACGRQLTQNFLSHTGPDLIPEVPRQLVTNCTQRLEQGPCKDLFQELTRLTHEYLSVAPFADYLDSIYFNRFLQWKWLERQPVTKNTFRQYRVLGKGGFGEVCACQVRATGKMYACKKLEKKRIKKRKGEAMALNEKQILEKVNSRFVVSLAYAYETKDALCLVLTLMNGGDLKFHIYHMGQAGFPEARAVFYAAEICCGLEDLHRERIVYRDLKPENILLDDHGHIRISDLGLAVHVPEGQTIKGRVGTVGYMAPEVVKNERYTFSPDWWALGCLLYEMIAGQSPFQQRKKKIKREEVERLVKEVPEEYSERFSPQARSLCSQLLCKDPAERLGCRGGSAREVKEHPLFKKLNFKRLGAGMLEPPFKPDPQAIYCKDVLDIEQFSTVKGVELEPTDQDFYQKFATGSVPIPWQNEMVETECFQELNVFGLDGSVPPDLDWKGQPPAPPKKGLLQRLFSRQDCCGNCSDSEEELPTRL
EPHA3 (human), sequence (P29320 whole entry, looked up): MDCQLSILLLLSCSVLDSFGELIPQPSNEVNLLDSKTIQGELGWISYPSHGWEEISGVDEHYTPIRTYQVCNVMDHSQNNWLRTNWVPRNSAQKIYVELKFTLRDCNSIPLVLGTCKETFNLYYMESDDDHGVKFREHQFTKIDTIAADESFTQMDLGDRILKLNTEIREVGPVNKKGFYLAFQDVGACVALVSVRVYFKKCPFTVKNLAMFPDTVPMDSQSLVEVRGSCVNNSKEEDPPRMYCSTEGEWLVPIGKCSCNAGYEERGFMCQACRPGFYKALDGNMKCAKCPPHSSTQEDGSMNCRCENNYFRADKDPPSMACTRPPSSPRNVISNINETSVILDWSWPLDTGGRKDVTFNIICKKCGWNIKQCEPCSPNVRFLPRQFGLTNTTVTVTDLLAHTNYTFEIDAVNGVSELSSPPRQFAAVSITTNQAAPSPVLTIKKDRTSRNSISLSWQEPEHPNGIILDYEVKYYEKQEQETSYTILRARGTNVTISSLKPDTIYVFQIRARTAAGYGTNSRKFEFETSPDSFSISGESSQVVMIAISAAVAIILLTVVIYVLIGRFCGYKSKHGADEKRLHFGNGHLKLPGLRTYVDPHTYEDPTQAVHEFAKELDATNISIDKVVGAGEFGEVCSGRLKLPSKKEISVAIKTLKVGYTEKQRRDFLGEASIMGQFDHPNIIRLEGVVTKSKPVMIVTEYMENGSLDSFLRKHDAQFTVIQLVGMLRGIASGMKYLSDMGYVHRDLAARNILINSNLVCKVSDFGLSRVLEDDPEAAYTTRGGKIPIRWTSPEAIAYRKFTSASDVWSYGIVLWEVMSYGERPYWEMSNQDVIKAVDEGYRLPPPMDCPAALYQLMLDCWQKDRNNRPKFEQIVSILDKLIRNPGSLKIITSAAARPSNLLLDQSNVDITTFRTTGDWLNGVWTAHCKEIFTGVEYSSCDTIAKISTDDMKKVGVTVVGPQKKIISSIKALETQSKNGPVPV
FGFR2 (human), sequence (P21802 whole entry, looked up): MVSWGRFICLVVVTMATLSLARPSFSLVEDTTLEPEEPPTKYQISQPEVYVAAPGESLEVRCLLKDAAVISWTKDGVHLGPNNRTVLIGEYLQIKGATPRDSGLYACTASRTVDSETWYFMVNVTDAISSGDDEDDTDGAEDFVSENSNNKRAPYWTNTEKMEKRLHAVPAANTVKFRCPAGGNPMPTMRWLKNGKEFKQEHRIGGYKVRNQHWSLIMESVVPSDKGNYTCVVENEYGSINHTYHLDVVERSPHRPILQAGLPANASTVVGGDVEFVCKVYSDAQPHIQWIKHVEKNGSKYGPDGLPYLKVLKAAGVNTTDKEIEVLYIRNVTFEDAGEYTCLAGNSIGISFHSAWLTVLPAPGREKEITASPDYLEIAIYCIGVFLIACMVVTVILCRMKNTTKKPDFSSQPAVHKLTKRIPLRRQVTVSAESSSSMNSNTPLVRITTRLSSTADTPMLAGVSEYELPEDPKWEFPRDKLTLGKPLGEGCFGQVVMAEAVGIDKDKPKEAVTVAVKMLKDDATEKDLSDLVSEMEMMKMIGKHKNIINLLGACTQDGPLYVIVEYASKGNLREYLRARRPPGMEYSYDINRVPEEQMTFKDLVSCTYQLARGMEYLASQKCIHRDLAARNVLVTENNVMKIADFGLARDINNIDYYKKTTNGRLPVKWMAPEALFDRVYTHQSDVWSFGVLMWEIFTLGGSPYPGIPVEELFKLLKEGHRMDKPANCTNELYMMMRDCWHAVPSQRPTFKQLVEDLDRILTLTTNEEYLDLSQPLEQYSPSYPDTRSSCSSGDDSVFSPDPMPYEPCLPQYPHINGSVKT
CSNK1G2 (human), sequence (P78368 whole entry, looked up): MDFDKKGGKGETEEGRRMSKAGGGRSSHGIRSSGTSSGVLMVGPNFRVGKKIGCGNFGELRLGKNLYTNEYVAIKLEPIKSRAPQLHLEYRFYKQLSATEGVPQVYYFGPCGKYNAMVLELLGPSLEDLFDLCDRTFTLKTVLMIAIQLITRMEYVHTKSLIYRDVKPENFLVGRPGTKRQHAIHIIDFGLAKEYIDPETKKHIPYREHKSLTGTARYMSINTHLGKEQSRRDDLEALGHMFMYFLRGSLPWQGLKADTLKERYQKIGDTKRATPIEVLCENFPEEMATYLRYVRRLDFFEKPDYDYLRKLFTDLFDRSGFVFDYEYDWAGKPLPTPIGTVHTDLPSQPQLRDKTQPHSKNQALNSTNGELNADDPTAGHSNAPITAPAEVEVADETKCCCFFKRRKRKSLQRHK

| SMILES | residual activity (AURKA (human)) [%] | residual activity (CAMK2G (human)) [%] | residual activity (CAMKK1 (human)) [%] | residual activity (CAMKK2 (human)) [%] | residual activity (CDK1 CCNB1 (human)) [%] | residual activity (CDK5 CDK5R1 p35 (human)) [%] | residual activity (CDK9 CCNK (human)) [%] | residual activity (CHEK2 (human)) [%] | residual activity (CSNK1G2 (human)) [%] | residual activity (DAPK3 (human)) [%] | residual activity (DYRK1B (human)) [%] | residual activity (EPHA1 (human)) [%] | residual activity (EPHA3 (human)) [%] | residual activity (FGFR2 (human)) [%] | residual activity (FGR (human)) [%] | residual activity (FRK (human)) [%] | residual activity (FYN (human)) [%] | residual activity (GRK6 (human)) [%] | residual activity (GSK3B (human)) [%] | residual activity (LTK (human)) [%] | other results |
| --- | --- | --- | --- | --- | --- | --- | --- | --- | --- | --- | --- | --- | --- | --- | --- | --- | --- | --- | --- | --- | --- |
| Cc1ccc(NC2=CC(=O)c3sc(C)nc3C2=O)cc1 | 110 | 90.4 | 108 | 92.5 | 69.7 | 86.3 | 84.4 | 100 | 99.9 | 104 | 94.6 | 86.1 | 96.6 | 91 | 85.3 | 87.9 | 95.6 | 96.8 | 82 | 88.8 | residual activity (MAP3K2 (human)): 93.3%; residual activity (MAPK14 (human)): 92.4%; residual activity (MAPK3 (human)): 100%; residual activity (MAPKAPK3 (human)): 76.5%; residual activity (MARK1 (human)): 89.6%; residual activity (MELK (human)): 93.2%; residual activity (MYLK2 (human)): 92.8%; residual activity (NTRK1 (human)): 80.6%; residual activity (PAK1 (human)): 87.5%; residual activity (PAK7 (human)): 77.4%; residual activity (PKN1 (human)): 98.9%; residual activity (PLK3 (human)): 94.5%; residual activity (PNCK (human)): 95.3%; residual activity (PRKCE (human)): 96.3%; residual activity (PRKCH (human)): 89.4%; residual activity (PRKG1 (human)): 104% and 96.3%; residual activity (ROS1 (human)): 107%; residual activity (RPS6KB1 (human)): 97.2%; residual activity (SYK (human)): 97.9%; residual activity (ULK1 (human)): 114% |
| O=c1cc(N2CCOCC2)oc2c1ccc1ccccc12 | 98 | 95.5 | 112 | 104 | 85.5 | 96.7 | 99.9 | 104 | 102 | 94.6 | 90.5 | 94.2 | 112 | 107 | 94.6 | 98.8 | 113 | 93.8 | 124 | 101 | residual activity (MAP3K2 (human)): 109%; residual activity (MAPK14 (human)): 96.7%; residual activity (MAPK3 (human)): 106%; residual activity (MAPKAPK3 (human)): 105%; residual activity (MARK1 (human)): 99.5%; residual activity (MELK (human)): 103%; residual activity (MYLK2 (human)): 97.7%; residual activity (NTRK1 (human)): 96.4%; residual activity (PAK1 (human)): 93.5%; residual activity (PAK7 (human)): 108%; residual activity (PKN1 (human)): 106%; residual activity (PLK3 (human)): 64%; residual activity (PNCK (human)): 97.4%; residual activity (PRKCE (human)): 89.6%; residual activity (PRKCH (human)): 94.7%; residual activity (PRKG1 (human)): 84.5% and 94.6%; residual activity (ROS1 (human)): 97%; residual activity (RPS6KB1 (human)): 99.3%; residual activity (SYK (human)): 93%; residual activity (ULK1 (human)): 96.1% |
| Cc1ccc(S(=O)(=O)/C=C/C#N)cc1 | 111 | 103 | 114 | 102 | 92.3 | 97 | 112 | 107 | 98.6 | 97.4 | 101 | 93.2 | 95 | 102 | 100 | 91.6 | 95.4 | 112 | 109 | 114 | residual activity (MAP3K2 (human)): 91.8%; residual activity (MAPK14 (human)): 97.4%; residual activity (MAPK3 (human)): 98.2%; residual activity (MAPKAPK3 (human)): 97.8%; residual activity (MARK1 (human)): 102%; residual activity (MELK (human)): 92%; residual activity (MYLK2 (human)): 105%; residual activity (NTRK1 (human)): 90.1%; residual activity (PAK1 (human)): 89.5%; residual activity (PAK7 (human)): 100%; residual activity (PKN1 (human)): 92.1%; residual activity (PLK3 (human)): 97.1%; residual activity (PNCK (human)): 107%; residual activity (PRKCE (human)): 106%; residual activity (PRKCH (human)): 106%; residual activity (PRKG1 (human)): 95.8% and 96.7%; residual activity (ROS1 (human)): 94.1%; residual activity (RPS6KB1 (human)): 105%; residual activity (SYK (human)): 105%; residual activity (ULK1 (human)): 102% |
